Series [1] is described as follows: [^18F]F-FDG PET/CT imaging in cancer patients. In kind it is in vivo, human. As to the method: The program content was explained to all healthy volunteers and cancer patients, and written informed consent was obtained. Whole-body dynamic imaging was conducted for 60 min using a PET/CT 690 Elite scanner (GE Discovery) immediately after intravenous injection of [^68Ga]Ga-HN11-1 (3.1 to 4.9 MBq/kg). A static body scan was performed 15 to 45 min after injection. All cancer patients underwent [^18F]F-FDG and [^68Ga]Ga-HN11-1 PET/CT imaging within 5 d. Two nuclear medicine physicians reconstructed and reviewed the images on GE aw 4.6 workstations and reached a consensus. They delineated the ROIs and measured the values of maximum standard uptake and average standard uptake (SUVmax and SUVmean). The biological distribution of [^68Ga]Ga-HN11-1 in healthy volunteers was determined by SUVmax and SUVmean. The OLINDA/EXM software (version 1.0, Hermes Medical Solutions AB) was used to estimate the human radiation dose based on the SUVmean of each organ.

The conditions of series [2]: Adult, PET/CT; cited from earlier work. An excerpt:
The kidney received the highest doses (9.83 × 10^−2 ± 2.10 × 10^−2 mSv/MBq).

Series [3] in a line: Partition coefficient (log P), 1-octanol/PBS. Type of series: physicochemical. The settings on record: shake-flask 3 mL 1-octanol / 3 mL PBS pH 7.4, vortex 10 min, centrifugation 10,000 rpm 10 min, γ-counter, mean ± SD, n = 5. As to the method:
The partition coefficients were assessed using the method described previously. [^68Ga]Ga-HN11-1 and [^68Ga]Ga-HN11-2 was respectively introduced into a mixture comprising 3 mL of 1-octanol and 3 mL of phosphate-buffered saline (PBS) with a pH of 7.4. Following vortexing for 10 minutes and subsequent centrifugation at 10,000 rpm for 10 minutes, samples were taken from both layers and counted using a γ-counter. The log P was determined using the formula: log P = log([M]oct/[M]aq). All measurements were conducted using 5 independent samples and are presented as mean ± standard deviation (SD).

Series [4] can be described thus: In vitro stability in saline (radio-HPLC). As to conditions: room temperature, over 4 h (0.5, 1, 2, 4 h), 3.74 MBq. In kind it is physicochemical. As to the method: (§1) The in vitro stability of [^68Ga]Ga-HN11-1 and [^68Ga]Ga-HN11-2 (3.74 MBq) in saline and serum was tested by radio-HPLC analysis of its radiochemical purity after incubation at room temperature for 0.5 , 1 , 2 and 4 h.

Series [5] is described as follows: In vitro stability in serum (radio-HPLC). In kind it is in vitro ADME. As to conditions: room temperature, over 4 h (0.5, 1, 2, 4 h), 3.74 MBq, read-out: in vitro stability in serum (radiochemical purity). As to the method:
as §1

Series [6] relates to A549-PD-L2 cell lines. Put plainly: Cell uptake assay. In kind it is cell-based. As to conditions: A549-PD-L2 cells, n = 5; for cell uptake rate: mean ± SD. As to the method: Cell uptake assays were conducted to measure the uptake of [^68Ga]Ga-HN11-1 and [^68Ga]Ga-HN11-2 in A549 and A459-PD-L2 cell lines following incubation periods of 15, 30, 60, and 90 min. Blocking studies were performed by coincubating cells with an excess of precursor (HN11-1 / HN11-2), and then the cell uptakes of [^68Ga]Ga-HN11-1 and [^68Ga]Ga-HN11-2 were performed in A459-PD-L2 cell lines after 60 min of incubation. The experiment details are provided in the SI.
All tumor cells (1 × 10^6 per well) were seeded in two 24 - well plates, incubated for 24 h and then added with […] of [^68Ga]Ga-HN11-1 or [^68Ga]Ga-HN11-2 per well. After 15, 30, 60 and 90 min of uptake, the cells were separated from the medium, washed with 500 μL of cold PBS for three times and dissolved with 1 M NaOH. At different time points, these cells were collected and counted by using a γ-counter (WIZARD 2480, Pekin Elmer). For in vitro blocking experiments, cells were co-incubated with 10 μg of cold HN11-1 or HN11-2 precursor. After incubation, the cells were washed, collected and measured with a γ-counter, either. The IC50 values of [^68Ga]Ga-HN11-1 or [^68Ga]Ga-HN11-2 were determined using GraphPad Prism 8.0.2 software, respectively.

The subject of series [7] is A549-PD-L2 tumor xenograft models. The series can be described thus: Dynamic micro-PET imaging in A549-PD-L2 xenografts. The settings on record: n = 3. In kind it is in vivo, BALB/C nude mice. As to the method:
Micro-PET imaging was conducted using an Inveon PET scanner (Siemens, Germany). Dynamic PET examine were acquired over the first 60 min following the simultaneous injection of 7.4 to 9.25 MBq (200 to 250 μCi) of [^68Ga]Ga-HN11-1 and [^68Ga]Ga-HN11-2. After reconstructing the images and delineating the regions of interest (ROIs), time-radioactivity curves were plotted to obtain the Tumor/Muscle (T/M) ratios. %ID/g represents the percentage of the injected dose of the radiotracer that accumulates in a specific tissue per gram of tissue weight. For the biodistribution study, the xenograft models received an intravenous injection of 3.7 to 5.5 MBq (100 to 150 μCi) of [^68Ga]Ga-HN11-1. After the designated period (10, 30, 60, and 90 min), the mice were euthanized, and important tissues and organs were dissected and collected. The samples were counted using the γ-counter for determining the %ID/g, presented as mean ± standard deviation (SD).
A549 cell lines were provided by the China Center for Type Culture Collection (CCTCC) and cultured in RPMI-1640 medium supplemented with 10 % fetal bovine serum and 100 U/mL penicillin-streptomycin. The lentivirus system was implemented to introduce PD-L2 (PDCD1LG2) over-expressed cDNA into the A549 cells. The viral vectors were produced in 293T cells and co-transfected with the psAX2, pMD2G and PD-L2 plasmids. A549 cells transduced with the vectors were selectively grown in 1.6 μg/mL puromycin. Transfection efficiency was identified by WB and real-time quantitative PCR. All the cells were cultured in an incubator at 37° C with 5 % CO2 atmosphere. A549 and A549-PD-L2 cells (5 × 10^6, 200 μL)were subcutaneously implanted into the right shoulder of BALB/C nude mice (male, 4-6 weeks), respectively. When the tumors reached to 5 - 8 mm in diameter, the mice were subjected to in vivo and ex vivo studies. All the mice were purchased from the Laboratory Animal Center of Central South University.

In series [8] the test system is A549-PD-L2 xenograft models. Put plainly: Static PET/CT imaging with blocking. As to conditions: 60 min, pretreatment i.v. with excess HN11-1 / HN11-2 (10 mg/kg), n = 3. Type of series: in vivo, BALB/C nude mice. As to the method:
(§2) The static PET/CT imaging in A549 and A549-PD-L2 xenograft models after injection of 5.55 to 7.4 MBq (150 to 200 μCi) of [^68Ga]Ga-HN11-1 or [^68Ga]Ga-HN11-2 were acquired at 60 min. In the [^68Ga]Ga-HN11-1 + block or [^68Ga]Ga-HN11-2 + block groups, the xenograft models underwent pretreatment via intravenous injection of HN11-1 or HN-2 (10 mg/kg) before PET/CT imaging. Then, ROIs were delineated for each group. After imaging, tumor tissues from both the A549 and A459-PD-L2 xenograft tumors were extracted, and the PD-L2 expression was tested by IHC. For the pharmacokinetics study, healthy BALB/C mouse received an intravenous injection of 5.55 MBq (150 μCi) of [^68Ga]Ga-HN11-1 and [^68Ga]Ga-HN11-2. Measure the activity of blood samples (%ID/g, mean ± SD) at the corresponding time points, and the time-activity curve was plotted. Subsequently, pharmacokinetic parameters were tested using the noncompartmental model in Phoenix WinNonlin 8.1 software (Certara, USA).

A short description of series [9]: Pharmacokinetics in blood. Type of series: in vivo. As to conditions: healthy BALB/C mouse, i.v. 5.55 MBq, noncompartmental model, Phoenix WinNonlin 8.1. As to the method: as §2
The subject of series [10] is patients with NSCLC. The series can be described thus: Clinical response to anti-PD-1 therapy in NSCLC patients. In kind it is in vivo, human. An excerpt:
We evaluated the clinical relevance between the expression of PD-L2 in tumor tissues and anti-PD-1 immunotherapy (pembrolizumab) in 49 patients with NSCLC, as assessed by PD-L2 IHC score data from these patients. The median age was 60 years (range, 41 to 86 y), male (81.6%). About 57.1% of the patients had distant metastasis (M1 stage), and 42.9% of the patients had received ≥2 other treatment before anti-PD-1 therapy (Table). […] patients were classified as PD-L1-positive expression, […] as PD-L2-positive expression, 21 (42.9%) as PD-L1 negative, and 27 (55.1%) as PD-L2 negative (Fig. 1A). […] (Fig. 1A). […] (Fig. 1A). In the 49 patients, PD-L2-positive was identified as a statistically significant predictor of better PFS (P < 0.05) (Fig. 1B), but it was not a statistically significant predictor of relapse-free survival (Fig. 1C).

Data on three compounds can be found in article PMC11528066, “Noninvasive Monitoring of Programmed Death-Ligand 2 Expression with Positron Emission Tomography using ^68Ga-labeled Peptide Antagonist in Preclinical and Exploratory Human Studies” (Research, 2024).

Peptide text beside a SMILES is read from it. * marks the point of attachment. NOTA = O=C(O)CN1CCN(CC(=O)O)CCN(CC(=O)*)CC1; AEEEA = NCCOCCOCCOCC(=O)O Where only a bound is given, the exact number is not on record here.

With `OC[C@H]1O[C@@H](O)[C@H]([18F])[C@@H](O)[C@@H]1O` [[^18F]F-FDG], the “FDG SUVmax” value in series [1] (patient 1, NSCLC, lung) was 15.5; in series [1] (patient 2, NSCLC, lung) it was 25.9; in series [1] (patient 3, rHNSCC, buccal) it was 13.7; in series [1] (patient 4, rHNSCC, buccal) it was 4.0; in series [1] (patient 5, mHNSCC, tongue), 4.0; in [1] (patient 6, mHNSCC, laryngeal), 3.7. In addition, in [2], the effective dose was 1.9 × 10^−2 mSv/MBq.
For `CC[C@H](C)[C@H](NC(=O)[C@H](CCCNC(=N)N)NC(=O)[C@H](C)NC(=O)[C@H](CCCCN)NC(=O)[C@@H](NC(=O)[C@H](CCCNC(=N)N)NC(=O)[C@H](CCCNC(=N)N)NC(=O)[C@@H](NC(=O)[C@H](Cc1c[nH]cn1)NC(=O)COCCOCCOCCNC(=O)CN1CCN(CC(=O)O)CCN(CC(=O)O)CC1)C(C)C)[C@@H](C)O)C(=O)N[C@@H](CCCNC(=N)N)C(=O)N[C@@H](CC(N)=O)C(=O)O` [[^68Ga]Ga-HN11-2, metal not drawn] ({NOTA-AEEEA}-HVRRTKARIRN-OH), the logD (as a rule, lipophilicity at a set pH, counting ionised and neutral species) in series [3] is -0.27 ± 0.0018. In addition, in series [4], the “in vitro stability in saline (radiochemical purity)” value is listed as > 95%. The remaining at 4 h in [5] is > 95%. In addition, the cell uptake rate in series [6] (30 min incubation, γ-counter) is reported as 1.55 ± 0.08%; in [6] (60 min incubation), 2.47 ± 0.13%. Also, in [6] (60 min, with excess (10 μg) of cold HN11-1 / HN11-2 precursor), the “cell uptake, block group” value stood at 0.61 ± 0.03%. In addition, the tumor uptake turned out to be 1.71 ± 0.14 %ID/g in [7] (10 min after injection); 2.17 ± 0.12 %ID/g in [7] (20 min after injection); 2.29 ± 0.17 %ID/g in series [7] (30 min after injection); 2.10 ± 0.03 %ID/g in series [7] (40 min after injection); 1.97 ± 0.07 %ID/g in series [7] (50 min after injection); 1.82 ± 0.06 %ID/g in [7] (60 min after injection). Also, the “tumor uptake after blocking” value in series [8] is listed as 0.82 ± 0.04 %ID/g. In series [9], this compound came in with a half-life in blood of 22.66 min.
For pembrolizumab: anti-PD-1 immunotherapy, the response rate in [10] (PD-L1-positive alone, 95% CI 63.4 to 93.8) is given as 78.6%; in series [10] (PD-L2-positive alone, 95% CI 59.8 to 94.8), 77.3%; in series [10] (both PD-L1 and PD-L2 negative group, 95% CI 29.6 to 90.4), 60.0%. For the same compound, the objective response rate in series [10] (PD-L1-positive but PD-L2-negative, 95% CI 56.3 to 96.6) stood at 76.5%; in series [10] (PD-L1-positive while PD-L2 unknown, 95% CI 63.4 to 93.8) it was 78.6%; in series [10] (both PD-L1- and PD-L2-positive, 95% CI 59.0 to 100.0), 81.8%.
